Experimental data as given in PMC4102551, “Screening and Characterisation of Antimicrobial Properties of Semisynthetic Betulin Derivatives” (PLoS ONE, 2014).
Where “and” joins values, the source holds several entries; their conditions need not be identical. Equal entries are not always repeated.

Key:
Huh-7 cells = test: in vitro; assay type: cell-based, human; settings: 24 h exposure; for Cytotoxicity (%) Huh-7 cells: 50 µM, ATP content, 5% FBS
Experimental: Huh-7 cells (derived from human hepatocellular carcinoma) were obtained as a gift from Prof. Ralf Bartenschlager (University of Heidelberg, Germany) and used for assessing the cytotoxicity against mammalian cells. HL cells (a heteroploid cell line used for propagating respiratory viruses) were used as a host cell line in the host-pathogen co-culture assay. […] Both cell lines were cultured at 37°C, 5% CO2 and 95% humidity.
The effect of the betulin derivatives on metabolic activity of Huh-7 cells was evaluated by measuring the intracellular ATP content of the cells after 24 h exposure to the compounds. In brief, cells were seeded at 20000 cells/well on white-walled microplates (PerkinElmer) and incubated at 37°C, 5% CO2 and 95% humidity. After culturing the cells overnight, the medium was replaced with the assay media (5% FBS) containing the sample and the cells were incubated for 24 h. Polymyxin B sulphate (15000 IU/mL) was used as a positive control. Following the incubation period, Promega’s CellTiter-Glo Cell Viability Assay was used to determine the intracellular ATP levels according to the manufacturer’s instructions. Cells were washed with 100 µL 6.7 mM PBS, pH 7.4 and 50 µL of fresh assay media and 50 µL of the CellTiter-Glo reagent were added into the wells. After 2 min shaking, followed by 10 min incubation at RT, luminometric signal was measured using Varioskan Flash plate reader (Thermo Fisher Scientific).

C. albicans ATCC 90028 = test: Broth microdilution assay, C. albicans; assay type: cell-based, Candida albicans; settings: 50 µM, 48 h at 35°C, inhibition of growth, mean ± SD
Experimental: (§1) Clinically used antimicrobial agents were selected based on international guidelines for antimicrobial testing and were utilised as reference compounds in the antimicrobial assays. The compounds were purchased from Sigma, Fluka and ICN Biomedicals. Stock solutions of the reference compounds were prepared either in double distilled sterile MilliQ water or in DMSO. Water solutions were sterilised through a 0.22 µm filter (VWR International). […] During the primary screening, these reference compounds were used as positive controls at the determined MIC on every plate.
(§2) Gram-negative strains Escherichia coli (ATCC 25922), Enterobacter aerogenes (ATCC 13048) and Pseudomonas aeruginosa (ATCC 27853), Gram-positive strains Staphylococcus aureus (ATCC 25923) and Enterococcus faecalis (ATCC 29212), and fungal strain Candida albicans (ATCC 90028) were obtained from Microbiologics Inc., and used for the antimicrobial screening. Strains were selected according to the guidelines set for clinical laboratories by Clinical and Laboratory Standards Institute [CLSI, formerly National Committee on Clinical Laboratory Standards [22]] and the European Committee on Antimicrobial Susceptibility Testing (EUCAST). Bacterial strains were grown on Mueller Hinton II Agar (MHA) (BBL, BD) and Mueller Hinton II broth (MHB) (BBL, BD), whereas Candida was initiated on Sabouraud Dextrose Agar (SDA) (Difco, BD) plates. Media were prepared into MilliQ water according to manufacturer’s instruction and autoclaved at 121°C for 15 min. Bacteria were plated on MHA plates and incubated at 37°C for 16–18 h. Bacterial suspension for the assays was prepared by subculturing the bacteria into MHB and by incubating at 37°C for 16–20 h at 110 rpm prior to the assay. Candida strain was grown on SDA plates at 27°C for 16–18 h and suspended into sterile 0.9% saline for the assay.
(§3) Antimicrobial screening assays were performed by broth microdilution method following the guidelines of CLSI and EUCAST. Bacterial suspensions were prepared as mentioned earlier and diluted with MHB to obtain a final inoculum of 5×10^5 colony-forming units (cfu)/mL in the assay for all the bacteria (based on OD620 values previously calibrated against plate counts). Candida suspension was prepared into sterile 0.9% saline solution as stated earlier. […] Assays were carried out in clear 96-well microtitre plates and initiated by dispensing an equal volume of microbial suspension and sample solution diluted into the assay medium into the wells. The plates were incubated for 24 h at 37°C (for Candida the incubation was at 35°C for 48 h) with agitation. Absorbance was measured at 620 nm with Victor plate reader (Wallac 1420, Perkin Elmer) at 0, 4 and 24 h with the bacteria, and at 0, 24 and 48 h with Candida. The antimicrobial activity of the samples was calculated from the absorbance values by comparing to the controls, and expressed as a percentage inhibition of growth. All the betulin derivatives were first assayed at the single concentration of 50 µM (two separate experiments, each with three replicates). […] The MIC90 value was expressed as the lowest concentration of compound that inhibited the microbial growth by >90%. The MIC90 results are means of three replicates from two separate experiments.

E. aerogenes ATCC 13048 = test: Broth microdilution assay, E. aerogenes; assay type: cell-based, Enterobacter aerogenes; settings: for Inhibitory effect (%) E. aerogenes ATCC 13048: 50 µM, 24 h, inhibition of growth, mean ± SD
Experimental: as §1, §2, §3

E. coli ATCC 25922 = test: Broth microdilution assay, E. coli; assay type: cell-based, Escherichia coli; settings: for Inhibitory effect (%) E. coli ATCC 25922: 50 µM, 24 h, inhibition of growth, mean ± SD
Experimental: as §1, §2, §3

E. faecalis ATCC 29212 = test: Broth microdilution assay, E. faecalis; assay type: cell-based, Enterococcus faecalis; settings: 50 µM, 24 h, inhibition of growth, mean ± SD
Experimental: as §1, §2, §3

P. aeruginosa ATCC 27853 = test: Broth microdilution assay, P. aeruginosa; assay type: cell-based, Pseudomonas aeruginosa; settings: for Inhibitory effect (%) P. aeruginosa ATCC 27853: 50 µM, 24 h, inhibition of growth, mean ± SD
Experimental: as §1, §2, §3

S. aureus ATCC 25923 = test: Broth microdilution assay, S. aureus; assay type: cell-based, Staphylococcus aureus; settings: 50 µM, 24 h, inhibition of growth, mean ± SD
Experimental: as §1, §2, §3

[1] = lowest concentration inhibiting growth by >90%

C=C(C)C1CCC2(C=O)CCC3(C)C(CCC4C5(C)CCC(=O)C(C)(C)C5CCC43C)C12 (centres unmarked) [Compound 22]
Cytotoxicity (%) Huh-7 cells (Huh-7 cells): 4.1±17.7% | Inhibitory effect (%) C. albicans ATCC 90028 (C. albicans ATCC 90028): -18.7±15.1% | Inhibitory effect (%) E. aerogenes ATCC 13048 (E. aerogenes ATCC 13048): 6.0±4.6% | Inhibitory effect (%) E. coli ATCC 25922 (E. coli ATCC 25922): -1.2±0.5% | Inhibitory effect (%) E. faecalis ATCC 29212 (E. faecalis ATCC 29212): 16.3±19.0% | Inhibitory effect (%) P. aeruginosa ATCC 27853 (P. aeruginosa ATCC 27853): 4.5±1.6% | Inhibitory effect (%) S. aureus ATCC 25923 (S. aureus ATCC 25923): 0.1±1.5%

C=C(C)[C@@H]1CC[C@]2(C(=O)OC)CC[C@]3(C)[C@H](CC[C@@H]4[C@@]5(C)CCC(=O)C(C)(C)[C@@H]5CC[C@]43C)[C@@H]12 [Compound 25, methyl ester of betulonic acid]
Cytotoxicity (%) Huh-7 cells (Huh-7 cells): 23.0±4.0% | Inhibitory effect (%) C. albicans ATCC 90028 (C. albicans ATCC 90028): -30.0±17.3% | Inhibitory effect (%) E. aerogenes ATCC 13048 (E. aerogenes ATCC 13048): 11.4±3.9% | Inhibitory effect (%) E. coli ATCC 25922 (E. coli ATCC 25922): -3.3±1.4% | Inhibitory effect (%) P. aeruginosa ATCC 27853 (P. aeruginosa ATCC 27853): 2.3±0.3% | Inhibitory effect (%) S. aureus ATCC 25923 (S. aureus ATCC 25923): 2.5±1.3%

C=C(C)C1CCC2(C(=O)NC(CC(=O)O)C(=O)O)CCC3(C)C(CCC4C5(C)CCC(=O)C(C)(C)C5CCC43C)C12 [Compound 27, L-aspartyl amide of betulonic acid]
Cytotoxicity (%) Huh-7 cells (Huh-7 cells): 10.9±1.3% | Inhibitory effect (%) C. albicans ATCC 90028 (C. albicans ATCC 90028): 44.2±3.8% | Inhibitory effect (%) E. aerogenes ATCC 13048 (E. aerogenes ATCC 13048): 9.3±1.0% | Inhibitory effect (%) E. coli ATCC 25922 (E. coli ATCC 25922): 3.1±4.6% | Inhibitory effect (%) E. faecalis ATCC 29212 (E. faecalis ATCC 29212): 38.2±15.5% | Inhibitory effect (%) P. aeruginosa ATCC 27853 (P. aeruginosa ATCC 27853): -1.2±0.4% | Inhibitory effect (%) S. aureus ATCC 25923 (S. aureus ATCC 25923): 12.7±3.3%

C=C(C)[C@@H]1CC[C@]2(C=NO)CC[C@]3(C)[C@H](CC[C@@H]4[C@@]5(C)CCC(=NO)C(C)(C)[C@@H]5CC[C@]43C)[C@@H]12 [Compound 30]
Cytotoxicity (%) Huh-7 cells (Huh-7 cells): 42.4±5.4% | Inhibitory effect (%) C. albicans ATCC 90028 (C. albicans ATCC 90028): 13.9±8.8% | Inhibitory effect (%) E. aerogenes ATCC 13048 (E. aerogenes ATCC 13048): 18.5±3.4% | Inhibitory effect (%) E. coli ATCC 25922 (E. coli ATCC 25922): 7.9±6.1% | Inhibitory effect (%) E. faecalis ATCC 29212 (E. faecalis ATCC 29212): 57% and 56.9±2.6% | Inhibitory effect (%) P. aeruginosa ATCC 27853 (P. aeruginosa ATCC 27853): 1.4±1.1% | Inhibitory effect (%) S. aureus ATCC 25923 (S. aureus ATCC 25923): 5.1±6.0%

C=C(C)[C@@H]1CC[C@]2(C#N)CC[C@]3(C)[C@H](CC[C@@H]4[C@@]5(C)CCC(=NOC(C)=O)C(C)(C)[C@@H]5CC[C@]43C)[C@@H]12 [Compound 32]
Cytotoxicity (%) Huh-7 cells (Huh-7 cells): -7.2±3.0% | Inhibitory effect (%) C. albicans ATCC 90028 (C. albicans ATCC 90028): -43.8±12.6% | Inhibitory effect (%) E. aerogenes ATCC 13048 (E. aerogenes ATCC 13048): 12.0±3.0% | Inhibitory effect (%) E. coli ATCC 25922 (E. coli ATCC 25922): 5.5±1.5% | Inhibitory effect (%) E. faecalis ATCC 29212 (E. faecalis ATCC 29212): 57% and 56.6±7.0% | Inhibitory effect (%) P. aeruginosa ATCC 27853 (P. aeruginosa ATCC 27853): 5.7±1.7% | Inhibitory effect (%) S. aureus ATCC 25923 (S. aureus ATCC 25923): 5.5±1.9%

Gentamycin [reference compound]
MIC90 of positive control, E. aerogenes (E. aerogenes ATCC 13048; [1]): (0.5 µg/mL) | MIC90 of positive control, E. coli (E. coli ATCC 25922; [1]): (2 µg/mL) | MIC90 of positive control, P. aeruginosa (P. aeruginosa ATCC 27853; [1]): (8 µg/mL)

Polymyxin B sulphate [reference compound]
IC50 cytotoxicity Huh-7 cells (positive control) (Huh-7 cells; ATP assay): 9361 IU/mL
